Results as given in patent US4626540A, “Substituted 1-amino-4-nitro-acridinones and methods of treating bacterial infections and leukemia with them” (Warner-Lambert Company, priority 1984, dated 1986).
In brackets after ≈: the same amount, converted by molar mass. Structures can show the parent of a compound that is named as a salt.

Legend:
[1] = tested on: L1210 murine leukemia cell lines; test: In vitro antitumor screening (PDC test), L1210 murine leukemia cell growth; format: cell-based; conditions: Mus musculus, 72 h; L1210 cells, 37° C., three days; value is ID50 multiplied by 10^7
Procedure: Another test protocol is the in vitro antitumor screening (PDC test) of compounds of the present invention on L1210 murine leukemia cell lines. L1210 cells, a murine leukemia cell line, were grown in RPMI 1640 supplemented with 5% fetal bovine serum and gentamicin (50 μg/ml).
Drug dilutions were prepared in the apropriate solvent and 20 μl of each dilution were added to 24-well Linbro tissue culture plats, followed by the addition of M 2.0 ml of cell suspension containing 3×10^4 cells per ml. Solvent and medium controls were included in each test. After incubation at 37° C. for three days in 5% CO2, the contents of each well were removed and the cells counted in a ZBI Coulter counter. Percent growth was calculated relative to the controls and the levels of drug activity wre expressed as ID50 in moles per liter using probit paper.

HCT-8 cells = test: In vitro proliferating human colon adenocarcinoma (HCA) cell screen, HCT-8 cells; format: cell-based; conditions: 60-65 hours at 37° C., value is ID50 multiplied by 10^7;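 note: ID50 is the molar concentration giving 50% growth inhibition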
Procedure: One test protocol is the in vitro proliferating human colon adenocarcinoma (HCA) cell screen. In this test, HCT-8 cells (HCA cell line received from Yale University) are trypsinized using trypsin-EDTA. A single cell suspension is achieved by passing the cells through a 26-gauge needle with a 20-cc syringe. A cell suspension is prepared using RPMI 1640+10% FCS+50 μg/ml gentamicin sulfate with a cell concentration of approximately 5,000 cells/ml. The cell suspension is dispensed in Linbro 24-well plates; 1 ml/well. The plates are incubated for approximately 48 hours at 37° C. in a 5% CO2 atmosphere. At this time test compounds are added in the appropriate concentration. Ten μl of the appropriate dilution is added to each well for a titration test. The plates are reincubated an additional 60-65 hours at 37° C. in a 5% CO2 atmosphere. The cells are lysed using a mix of cationic surfactant, glacial acetic acid and sodium chloride. Two ml of the lysed cell suspension from each well is added to 8 ml of diluent. The number of nuclei is determined using a Coulter counter (ZBI model), and a percent growth for each drug concentration is calculated.

[2] = tested on: lymphocytic leukemia P388; test: In vivo lymphocytic leukemia P388 test; design: species or system CD2 F1 mice; conditions: Mus musculus, P388, ip, intraperitoneal, once daily for five days, survival time treated/control, read-out: P388 in vivo T/C × 100
Procedure: Another test protocol is the in vivo lymphocytic leukemia P388 test. the animals used are either male or female CD2 F1 mice, six or seven animals per test group. The tumor transplant is by intraperitoneal injection of dilute ascitic fluid containing cells of lymphocytic leukemia P388. The test compounds are administered intraperitoneally once daily for five consecutive days at various doses following tumor inoculation. The animals are weighed and survivors are recorded on a regular basis for 30 days. A compound is designated "toxic" if, at a given dose, all animals die prior to four days after the first injection of drug. A ratio of survival time for treated (T)/control (C) animals is calculated. A criterion for efficacy is a ratio T/C times 100 greater than or equal to 125. See Cancer Chemotherapy Reports, Part 3, 3, 1 (1972) for a comprehensive discussion of the protocol.

Escherichia coli = test: In vitro antibacterial (ABMF) microdilution test, Escherichia coli; format: cell-based; conditions: Mueller-Hinton broth, 37° C., 16-24 hours, read-out: ABMF minimal inhibitory conc, E. coli
Text: (§1) Still another test protocol is the in vitro antibacterial (ABMF) test which is a recognized standard microdilution susceptibility procedure in Mueller-Hinton broth against Gram-positive and Gram-negative bacterial test organisms. The procedure is a modification of a state-of-the-art procedure reported in Manual of Clinical Microbiology, Lennette, E. H., ed., by Barry, A. L. and C. Thornsberry at pages 463-474 and by Gavan, T. L. and A. L. Barry at pages 459-462, American Society for Microbiology, Washington, 1980.
(§2) In the test, a given bacterial culture is used to inoculate individual test wells of microdilution trays containing growth medium and test compound, the latter in a microdilution series: 1000, 333, 111, 37, 12, 4, 1.4, and 0.46 micrograms per milliliter. […] For convenience, values are reported for Escherichia coli, Corynebacterium Sp. ATCC 21698, Branhamella catarrhalis, Streptococcus pneumoniae, and Bacillus cereus.

[3] = tested on: Corynebacterium Sp. ATCC 21698; test: In vitro antibacterial (ABMF) microdilution test, Corynebacterium Sp.; format: cell-based; conditions: ATCC21698, Mueller-Hinton broth, 37° C., 16-24 hours, read-out: ABMF minimal inhibitory conc, Coryn. Species
Text: as §1, §2

Branhamella catarrhalis = test: In vitro antibacterial (ABMF) microdilution test, Branhamella catarrhalis; format: cell-based; conditions: Moraxella catarrhalis; Mueller-Hinton broth, 37° C., 16-24 hours; read-out: ABMF minimal inhibitory conc, B. cat.
Text: as §1, §2

Streptococcus pneumoniae = test: In vitro antibacterial (ABMF) microdilution test, Streptococcus pneumoniae; format: cell-based; conditions: Mueller-Hinton broth, 37° C., 16-24 hours, read-out: ABMF minimal inhibitory conc, S. pneu.
Text: as §1, §2

Bacillus cereus = test: In vitro antibacterial (ABMF) microdilution test, Bacillus cereus; format: cell-based; conditions: Mueller-Hinton broth, 37° C., 16-24 hours, read-out: ABMF minimal inhibitory conc, B. cer.
Text: as §1, §2

Compound	IC50 [1]	IC50 (HCT-8 cells)	MIC (Escherichia coli)	MIC [3]	MIC (Branhamella catarrhalis)	MIC (Streptococcus pneumoniae)	MIC (Bacillus cereus)	response vs control in vivo at 12.5 mg/kg [2]	response vs control in vivo at 25 mg/kg [2]	response vs control in vivo at 50 mg/kg [2]	response vs control in vivo at 100 mg/kg [2]	response vs control in vivo at 200 mg/kg [2]	response vs control in vivo at 1.56 mg/kg ([2]; 1.56 mg/kg)	response vs control in vivo at 3.12 mg/kg ([2]; 3.12 mg/kg)	response vs control in vivo at 6.25 mg/kg ([2]; 6.25 mg/kg)
CCN(CC)CCNc1ccc([N+](=O)[O-])c2[nH]c3ccc(O)cc3c(=O)c12 [Example 2, 1-[[2-(Diethylamino)ethyl]amino]-7-hydroxy-4-nitro-9(10H)-acridinone, methanesulfonate (1:1), hydrate (1:1)]	6.7 nM	4.5 nM	< 0.46 µg/mL	< 0.46 µg/mL	< 0.46 µg/mL	< 0.46 µg/mL	< 0.46 µg/mL	250%	–	–	–	–	–	–	–
CN(C)CCCNc1ccc([N+](=O)[O-])c2[nH]c3ccc(O)cc3c(=O)c12 [Example 21]	19 nM	2.8 nM	< 0.46 µg/mL	0.46 µg/mL (≈ 1.29 µM)	< 0.46 µg/mL	0.46 µg/mL (≈ 1.29 µM)	< 0.46 µg/mL	–	–	–	–	–	162%	187%	234%
CCCCOc1ccc2[nH]c3c([N+](=O)[O-])ccc(NCCCN(C)C)c3c(=O)c2c1.CS(=O)(=O)O [Example 24, 7-Butoxy-1-[[3-(dimethylamino)propyl]amino]-4-nitro-9(10H)-acridinone, methanesulfonate]	350 nM	370 nM	12.3 µg/mL	4.1 µg/mL	12.3 µg/mL	1.4 µg/mL	111 µg/mL	123%	151%	–	–	–	–	–	–
CCN(CC)CCCNc1ccc([N+](=O)[O-])c2[nH]c3ccc(OC)cc3c(=O)c12 [Example 26, 1-[[3-(Diethylamino)propyl]amino]-7-methoxy-4-nitro-9(10H)-acridinone, methanesulfonate (salt) (1:1)]	78 nM	270 nM	12.3 µg/mL	0.46 µg/mL	< 0.46 µg/mL	4.1 µg/mL	12.3 µg/mL	127%	142%	161%	198%	–	–	–	–
CCCCOc1ccc2[nH]c3c([N+](=O)[O-])ccc(NCCNCCO)c3c(=O)c2c1 [Example 18, 7-Butoxy-1-[[2-[(2-hydroxyethyl)amino]ethyl]amino]-4-nitro-9(10H)-acridinone, methanesulfonate, 0.3 hydrate]	350 nM	400 nM	111 µg/mL	37 µg/mL	333 µg/mL	37 µg/mL	333 µg/mL	121%	136%	–	–	–	–	–	–
CN(C)CCNc1ccc([N+](=O)[O-])c2[nH]c3ccccc3c(=O)c12 [Example 8, 1-[[2-(Dimethylamino)ethyl]amino]-4-nitro-9(10H)-acridinone, methanesulfonate (1:1), hemihydrate]	390 nM	340 nM	1.4 µg/mL	< 0.46 µg/mL	< 0.46 µg/mL	< 0.46 µg/mL	4.1 µg/mL	–	142%	185%	–	–	–	–	–

Second part, led by results:

IC50 [1]	IC50 (HCT-8 cells)	MIC (Escherichia coli)	MIC [3]	MIC (Branhamella catarrhalis)	MIC (Streptococcus pneumoniae)	MIC (Bacillus cereus)	Compound	response vs control in vivo at 12.5 mg/kg [2]	response vs control in vivo at 25 mg/kg [2]	response vs control in vivo at 50 mg/kg [2]	response vs control in vivo at 100 mg/kg [2]	response vs control in vivo at 200 mg/kg [2]	response vs control in vivo at 1.56 mg/kg ([2]; 1.56 mg/kg)	response vs control in vivo at 3.12 mg/kg ([2]; 3.12 mg/kg)	response vs control in vivo at 6.25 mg/kg ([2]; 6.25 mg/kg)
2400 nM	1100 nM	111 µg/mL	< 0.46 µg/mL	< 0.46 µg/mL	< 0.46 µg/mL	4.1 µg/mL	CCN(CC)CCNc1ccc([N+](=O)[O-])c2[nH]c3ccc(OC)cc3c(=O)c12.CS(=O)(=O)O [Example 3, 1-[[2-(Diethylamino)ethyl]amino]-7-methoxy-4-nitro-9(10H)-acridinone, methanesulfonate (1:1)]	126%	151%	178%	237%	296%	–	–	–
1300 nM	560 nM	> 1000 µg/mL	111 µg/mL	> 1000 µg/mL	37 µg/mL	> 1000 µg/mL	CCN(CC)CCNc1ccc([N+](=O)[O-])c2[nH]c3ccc(N(C)C)cc3c(=O)c12.CS(=O)(=O)O [Example 7, 1-[[2-(Diethylamino)ethyl]amino]-7-(dimethylamino)-4-nitro-9(10H)-acridinone, methanesulfonate (1:1)]	–	–	33%	169%	–	–	–	–
260 nM	890 nM	> 1000 µg/mL	< 0.46 µg/mL	< 0.46 µg/mL	< 0.46 µg/mL	> 1000 µg/mL	COc1ccc2[nH]c3c([N+](=O)[O-])ccc(NCCN(C)C)c3c(=O)c2c1.CS(=O)(=O)O [Example 9, 1-[[2-(Dimethylamino)ethyl]amino]-7-methoxy-4-nitro-9(10H)-acridinone, methanesulfonate (1:1)]	–	124%	146%	201%	269%	–	–	–
